These results are taken from patent publication US6911220B1, “Allogeneic and xenogeneic transplantation” (The General Hospital Corporation, priority 1992, dated 2005).

For the test, the system named is pig kidney transplants in Cynomolgus monkeys. As to the kind of experiment: Pig to monkey kidney xenotransplantation.

Structures are written as SMILES.

For the compound `N=C(N)NCCCCCCC(=O)NC(O)C(=O)NCCCCNCCCN` (stereo not shown) [DSG, 15-deoxyspergualin], under “6 mg/kg/day, i.v., pig to cynomolgus kidney transplants”, the “suppression of natural antibody function” value was “useful in suppressing natural antibody function”. Further, the “usefulness of combination treatment” value (cyclosporine 15 mg/kg/day 28 days + 15-deoxyspergualin 6 mg/kg/day two weeks + pig SCF and IL-3 10 μg/kg/day i.v. two weeks, pig grafts and stem cells) is given as “useful”. Moreover, under “splenectomy + pig liver perfusion, cyclosporine 15 mg/kg/day iv and DSG 6 mg/kg/day iv post-transplant, removed on day 8”, the “day until which the pig kidney functioned” value turned out to be 7 days. The “IgM natural antibodies in serum after liver perfusion” value (with cyclosporine 15 mg/kg/day iv and DSG 6 mg/kg/day iv) is “did not appear in the serum thereafter”.
